{
  "source": "ChEMBL document CHEMBL6074641",
  "about": "“Polypharmacological Drug Design Guided by Integrating Phenotypic and Restricted Fragment Docking Strategies” (J Med Chem, 2024)",
  "key": {"[1]": {"target": "ALK tyrosine kinase receptor (Homo sapiens, UniProt Q9UM73)", "sequence (Q9UM73 whole entry)": "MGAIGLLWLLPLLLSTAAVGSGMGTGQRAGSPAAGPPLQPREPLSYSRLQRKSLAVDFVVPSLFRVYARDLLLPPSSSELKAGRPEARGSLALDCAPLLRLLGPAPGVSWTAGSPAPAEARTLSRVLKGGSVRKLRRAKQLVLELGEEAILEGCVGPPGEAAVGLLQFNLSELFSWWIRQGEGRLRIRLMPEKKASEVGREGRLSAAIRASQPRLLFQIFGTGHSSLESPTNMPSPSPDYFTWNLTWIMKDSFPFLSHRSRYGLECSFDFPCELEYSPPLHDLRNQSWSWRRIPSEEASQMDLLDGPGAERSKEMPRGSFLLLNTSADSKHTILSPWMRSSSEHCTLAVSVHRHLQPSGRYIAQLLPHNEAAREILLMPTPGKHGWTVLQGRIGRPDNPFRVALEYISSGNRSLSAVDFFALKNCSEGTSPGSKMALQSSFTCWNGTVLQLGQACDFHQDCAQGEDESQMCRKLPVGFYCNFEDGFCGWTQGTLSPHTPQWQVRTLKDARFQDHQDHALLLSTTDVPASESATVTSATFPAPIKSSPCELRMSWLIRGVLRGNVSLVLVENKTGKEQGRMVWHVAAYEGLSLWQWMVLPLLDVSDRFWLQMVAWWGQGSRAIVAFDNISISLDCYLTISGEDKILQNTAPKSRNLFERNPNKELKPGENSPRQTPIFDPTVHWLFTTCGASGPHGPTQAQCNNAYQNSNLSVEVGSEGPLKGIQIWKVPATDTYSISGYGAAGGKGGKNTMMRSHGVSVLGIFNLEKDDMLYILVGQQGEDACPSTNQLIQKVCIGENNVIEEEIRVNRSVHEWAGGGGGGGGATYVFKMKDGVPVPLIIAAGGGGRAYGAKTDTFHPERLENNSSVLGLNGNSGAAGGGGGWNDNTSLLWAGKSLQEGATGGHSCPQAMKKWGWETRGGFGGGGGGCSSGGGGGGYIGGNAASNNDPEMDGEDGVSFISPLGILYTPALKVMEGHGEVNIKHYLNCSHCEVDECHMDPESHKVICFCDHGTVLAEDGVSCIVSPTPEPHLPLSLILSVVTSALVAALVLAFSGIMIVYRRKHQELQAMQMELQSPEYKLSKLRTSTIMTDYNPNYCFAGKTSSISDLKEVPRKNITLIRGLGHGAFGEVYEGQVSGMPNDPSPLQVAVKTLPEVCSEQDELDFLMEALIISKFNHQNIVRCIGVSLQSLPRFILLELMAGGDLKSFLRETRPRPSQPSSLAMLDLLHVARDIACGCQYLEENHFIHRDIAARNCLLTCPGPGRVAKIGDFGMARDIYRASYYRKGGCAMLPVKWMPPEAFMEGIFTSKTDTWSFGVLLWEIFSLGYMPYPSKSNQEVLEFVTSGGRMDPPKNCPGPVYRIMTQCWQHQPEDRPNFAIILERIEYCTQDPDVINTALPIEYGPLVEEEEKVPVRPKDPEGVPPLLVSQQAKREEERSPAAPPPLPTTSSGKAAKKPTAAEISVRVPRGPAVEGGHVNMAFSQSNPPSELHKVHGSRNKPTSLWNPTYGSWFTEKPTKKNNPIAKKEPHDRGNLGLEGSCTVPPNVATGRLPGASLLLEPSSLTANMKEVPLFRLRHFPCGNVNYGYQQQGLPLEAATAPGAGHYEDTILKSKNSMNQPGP", "test": "Inhibition of recombinant ALK (1060 to end residues) (unknown origin) expressed in Escherichia coli […] using IGF1Rtide as substrate preincubated for 15 mins followed by substrate and ATP addition and measured after 90 mins by ADP-Glo luminescence […] assay"}, "[2]": {"target": "Mitogen-activated protein kinase kinase kinase kinase 4 (Homo sapiens, UniProt O95819)", "sequence (O95819 2-1239 limits assumed)": "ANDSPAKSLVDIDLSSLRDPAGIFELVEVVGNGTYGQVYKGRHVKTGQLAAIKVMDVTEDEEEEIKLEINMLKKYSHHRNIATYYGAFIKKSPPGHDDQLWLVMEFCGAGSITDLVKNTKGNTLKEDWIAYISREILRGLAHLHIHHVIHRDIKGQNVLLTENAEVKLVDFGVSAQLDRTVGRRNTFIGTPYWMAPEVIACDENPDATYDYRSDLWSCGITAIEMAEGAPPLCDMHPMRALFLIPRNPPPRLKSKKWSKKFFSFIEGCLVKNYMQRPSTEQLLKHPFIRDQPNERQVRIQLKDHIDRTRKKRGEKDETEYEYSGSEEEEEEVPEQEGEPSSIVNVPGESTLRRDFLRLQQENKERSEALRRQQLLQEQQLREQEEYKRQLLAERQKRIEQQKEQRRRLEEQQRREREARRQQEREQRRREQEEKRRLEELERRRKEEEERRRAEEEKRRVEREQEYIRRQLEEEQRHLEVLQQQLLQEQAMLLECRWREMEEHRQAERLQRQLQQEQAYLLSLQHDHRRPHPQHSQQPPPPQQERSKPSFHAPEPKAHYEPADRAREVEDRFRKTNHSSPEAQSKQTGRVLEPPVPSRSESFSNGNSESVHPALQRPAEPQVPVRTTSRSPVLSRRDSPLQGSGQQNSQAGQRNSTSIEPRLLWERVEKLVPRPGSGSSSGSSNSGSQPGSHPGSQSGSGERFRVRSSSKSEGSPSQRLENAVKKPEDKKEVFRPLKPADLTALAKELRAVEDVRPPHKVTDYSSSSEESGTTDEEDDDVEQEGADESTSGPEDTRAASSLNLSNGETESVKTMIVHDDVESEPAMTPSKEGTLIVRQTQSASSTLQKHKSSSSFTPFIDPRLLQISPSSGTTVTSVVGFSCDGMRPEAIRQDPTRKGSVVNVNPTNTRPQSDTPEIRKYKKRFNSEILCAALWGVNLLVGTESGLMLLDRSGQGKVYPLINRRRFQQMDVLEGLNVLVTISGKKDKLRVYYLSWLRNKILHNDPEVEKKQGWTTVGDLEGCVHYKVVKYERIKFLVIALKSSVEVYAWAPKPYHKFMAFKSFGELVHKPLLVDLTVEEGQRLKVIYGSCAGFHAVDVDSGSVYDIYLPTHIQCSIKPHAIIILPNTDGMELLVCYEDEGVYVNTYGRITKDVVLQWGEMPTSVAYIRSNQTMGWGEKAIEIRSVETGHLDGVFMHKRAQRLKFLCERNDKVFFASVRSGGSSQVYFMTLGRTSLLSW", "test": "Inhibition of MAP4K4 (unknown origin) at 1 uM"}, "BV-2 [3]": {"system": "BV-2", "test": "Anti-necroptosis activity in mouse BV-2 cells at 10 uM preincubated with LPS for 11 hrs followed by compound addition for 1 hr and exposed to zVAD-fmk for another 24 hrs by Cellcounting-Lite 2.0 luminescent cell viability assay", "type": "functional, cell-based", "conditions": "time 25.0 hrs"}, "BV-2 [4]": {"system": "BV-2", "test": "Anti-necroptosis activity in mouse BV-2 cells assessed as reduction in p65 expression at 100 nM by confocal microscopic analysis", "type": "functional, cell-based"}, "[5]": {"target": "Mitogen-activated protein kinase kinase kinase kinase 4 (Mus musculus) (UniProt P97820)", "test": "Inhibition of MAP4K4 activation in mouse BV-2 cells by Western blotting analysis", "type": "cell-based", "conditions": "dose 4-100 nM"}, "[6]": {"target": "ALK tyrosine kinase receptor (Mus musculus) (UniProt P97793)", "test": "Inhibition of ALK activation in mouse BV-2 cells by Western blotting analysis", "type": "cell-based", "conditions": "dose 4-100 nM"}, "BV-2 [7]": {"system": "BV-2", "test": "Inhibition of MLKL activation in mouse BV-2 cells by Western blotting analysis", "type": "cell-based", "conditions": "dose 4-100 nM"}, "[8]": {"test": "Anti-necroptosis activity in LPS/zVAD stimulated mouse primary microglia assessed as protection of microglia cells at 100 nM", "type": "functional"}, "Microglia [9]": {"system": "Microglia", "test": "Anti-necroptosis activity in LPS/zVAD stimulated mouse primary microglia transfected with Myc-tagged ALK plasmid assessed as protection of microglia cells at 100 nM", "type": "functional, cell-based"}, "Microglia [10]": {"system": "Microglia", "test": "Anti-necroptosis activity in LPS/zVAD stimulated mouse primary microglia assessed as reversal of translucent cytoplasm by TEM analysis", "type": "functional, cell-based"}, "Microglia [11]": {"system": "Microglia", "test": "Anti-necroptosis activity in LPS/zVAD stimulated mouse primary microglia overexpressed with RIPK1 assessed as reversal of translucent cytoplasm by TEM analysis", "type": "functional, cell-based"}, "Microglia [12]": {"system": "Microglia", "test": "Anti-necroptosis activity in LPS/zVAD stimulated mouse primary microglia overexpressed with RIPK1 assessed as reversal of mitochondrial swelling by TEM analysis", "type": "functional, cell-based"}, "Microglia [13]": {"system": "Microglia", "test": "Anti-necroptosis activity in LPS/zVAD stimulated mouse primary microglia overexpressed with MAP4K4 assessed as reversal of mitochondrial swelling by TEM analysis", "type": "functional, cell-based"}, "Microglia [14]": {"system": "Microglia", "test": "Anti-necroptosis activity in LPS/zVAD stimulated mouse primary microglia overexpressed with MAP4K4 assessed as reversal of severe membrane disruption by TEM analysis", "type": "functional, cell-based"}, "Cytochrome P450 2B6": {"target": "Cytochrome P450 2B6 (Homo sapiens, UniProt P20813)", "test": "Inhibition of CYP2B6 (unknown origin) incubated for 10 mins in presence of NADPH by LC-MS/MS analysis", "type": "ADME"}, "Cytochrome P450 2C8": {"target": "Cytochrome P450 2C8 (Homo sapiens, UniProt P10632)", "sequence (P10632 whole entry)": "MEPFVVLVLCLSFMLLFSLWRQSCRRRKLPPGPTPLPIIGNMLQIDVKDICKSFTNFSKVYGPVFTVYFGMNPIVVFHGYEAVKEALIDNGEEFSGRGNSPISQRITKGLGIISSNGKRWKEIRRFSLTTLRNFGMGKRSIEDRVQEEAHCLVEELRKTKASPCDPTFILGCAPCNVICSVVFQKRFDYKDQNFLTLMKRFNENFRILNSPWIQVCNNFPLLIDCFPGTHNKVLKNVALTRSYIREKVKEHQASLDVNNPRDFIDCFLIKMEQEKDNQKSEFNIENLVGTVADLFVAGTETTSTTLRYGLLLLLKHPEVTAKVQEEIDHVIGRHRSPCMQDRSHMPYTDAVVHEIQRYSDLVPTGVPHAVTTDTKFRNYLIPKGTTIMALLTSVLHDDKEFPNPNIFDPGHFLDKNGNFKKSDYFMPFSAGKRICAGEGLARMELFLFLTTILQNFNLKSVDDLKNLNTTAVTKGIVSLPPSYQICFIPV", "test": "Inhibition of CYP2C8 (unknown origin) incubated for 10 mins in presence of NADPH by LC-MS/MS analysis", "type": "ADME"}, "Cytochrome P450 2C19": {"target": "Cytochrome P450 2C19 (Homo sapiens, UniProt P33261)", "sequence (P33261 whole entry)": "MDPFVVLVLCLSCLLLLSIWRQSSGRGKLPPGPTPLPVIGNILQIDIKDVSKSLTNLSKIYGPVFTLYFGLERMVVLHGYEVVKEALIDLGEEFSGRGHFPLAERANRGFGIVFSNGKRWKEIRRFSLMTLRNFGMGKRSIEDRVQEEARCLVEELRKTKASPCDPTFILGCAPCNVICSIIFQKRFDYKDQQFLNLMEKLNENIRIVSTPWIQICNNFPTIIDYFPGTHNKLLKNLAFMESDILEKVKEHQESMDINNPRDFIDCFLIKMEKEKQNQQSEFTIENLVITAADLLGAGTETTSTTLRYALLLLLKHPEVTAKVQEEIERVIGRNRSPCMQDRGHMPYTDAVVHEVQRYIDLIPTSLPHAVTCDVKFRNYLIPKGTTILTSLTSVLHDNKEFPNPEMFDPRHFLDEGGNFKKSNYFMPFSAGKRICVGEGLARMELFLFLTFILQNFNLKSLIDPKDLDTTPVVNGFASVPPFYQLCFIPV", "test": "Inhibition of CYP2C19 (unknown origin) using S-mephenytoin as substrate incubated for 10 mins in presence of NADPH by LC-MS/MS analysis", "type": "ADME"}, "Cytochrome P450 2D6": {"target": "Cytochrome P450 2D6 (Homo sapiens, UniProt P10635)", "sequence (P10635 whole entry)": "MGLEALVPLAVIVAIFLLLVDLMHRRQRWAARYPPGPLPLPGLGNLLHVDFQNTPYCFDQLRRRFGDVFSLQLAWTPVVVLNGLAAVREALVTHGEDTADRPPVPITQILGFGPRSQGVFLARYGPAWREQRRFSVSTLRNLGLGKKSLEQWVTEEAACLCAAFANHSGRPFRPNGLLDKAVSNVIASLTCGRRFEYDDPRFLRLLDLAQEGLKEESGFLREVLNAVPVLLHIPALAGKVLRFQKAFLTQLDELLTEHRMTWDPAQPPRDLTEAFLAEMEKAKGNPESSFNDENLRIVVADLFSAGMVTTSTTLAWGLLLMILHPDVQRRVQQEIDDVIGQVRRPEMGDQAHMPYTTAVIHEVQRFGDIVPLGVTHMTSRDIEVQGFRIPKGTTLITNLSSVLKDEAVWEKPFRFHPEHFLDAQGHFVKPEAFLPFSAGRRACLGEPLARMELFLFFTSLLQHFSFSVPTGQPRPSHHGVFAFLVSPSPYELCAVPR", "test": "Inhibition of CYP2D6 (unknown origin) using dextromethorphan as substrate incubated for 10 mins in presence of NADPH by LC-MS/MS analysis", "type": "ADME"}, "Cytochrome P450 3A4": {"target": "Cytochrome P450 3A4 (Homo sapiens, UniProt P08684)", "sequence (P08684 whole entry)": "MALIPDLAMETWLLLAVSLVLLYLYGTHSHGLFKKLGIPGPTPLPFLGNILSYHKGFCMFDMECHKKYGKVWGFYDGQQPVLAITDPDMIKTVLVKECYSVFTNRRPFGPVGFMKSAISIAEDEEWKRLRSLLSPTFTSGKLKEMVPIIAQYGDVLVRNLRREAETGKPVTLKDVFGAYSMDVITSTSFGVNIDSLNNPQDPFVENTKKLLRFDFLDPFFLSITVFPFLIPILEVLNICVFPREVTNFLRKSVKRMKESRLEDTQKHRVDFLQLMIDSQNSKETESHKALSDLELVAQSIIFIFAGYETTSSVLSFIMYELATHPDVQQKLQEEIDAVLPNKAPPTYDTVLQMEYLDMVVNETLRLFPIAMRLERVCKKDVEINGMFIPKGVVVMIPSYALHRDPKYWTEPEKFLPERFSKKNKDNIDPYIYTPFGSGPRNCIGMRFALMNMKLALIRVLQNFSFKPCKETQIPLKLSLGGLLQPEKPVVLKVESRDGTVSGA", "test": "Inhibition of CYP3A4 (unknown origin) using midazolam as substrate incubated for 10 mins in presence of NADPH by LC-MS/MS analysis", "type": "ADME"}, "[15]": {"target": "Voltage-gated inwardly rectifying potassium channel KCNH2 (Homo sapiens, UniProt Q12809)", "test": "Inhibition of human ERG expressed in CHO cells by Qpatch clamp method", "type": "toxicity, cell-based"}, "[16]": {"test": "Unbound plasma protein binding in human incubated for 24 hrs by HPLC based equilibrium dialysis method", "type": "ADME, cell-free"}, "[17]": {"test": "Unbound plasma protein binding in mouse incubated for 24 hrs by HPLC based equilibrium dialysis method", "type": "ADME, cell-free"}, "[18]": {"test": "Tmax in C57BL/6 mouse brain at 10 mg/kg, po measured upto 24 hrs by LC-MS/MS analysis", "type": "ADME, organism-based"}, "[19]": {"test": "Half-life in C57BL/6 mouse plasma at 10 mg/kg, po measured upto 24 hrs by LC-MS/MS analysis", "type": "ADME, organism-based"}, "[20]": {"test": "AUC(0 to t) in C57BL/6 mouse plasma at 10 mg/kg, po measured upto 24 hrs by LC-MS/MS analysis", "type": "ADME, organism-based"}, "[21]": {"test": "AUC(0 to t) in C57BL/6 mouse brain at 10 mg/kg, po measured upto 24 hrs by LC-MS/MS analysis", "type": "ADME, organism-based"}, "Mus musculus [22]": {"system": "Mus musculus", "test": "Anti-alzheimer activity against 5 month old APP/PS1 transgenic mouse model assessed as […] at 2 mg/kg, po administered 4 times per week for 4 weeks", "type": "functional, organism-based"}, "Mus musculus [23]": {"system": "Mus musculus", "test": "Anti-alzheimer activity against 8 month old 3xTg mouse model assessed as decrease in anxiety level at 2 to 10 mg/kg, po administered 4 times per week for 4 weeks", "type": "functional, organism-based", "conditions": "dose 2-10 mg/kg"}, "Mus musculus [24]": {"system": "Mus musculus", "test": "Anti-alzheimer activity against 5 month old APP/PS1 transgenic mouse model assessed as improved spatial preference towards annulus at 10 mg/kg, po administered 4 times per week for 4 weeks", "type": "functional, organism-based"}, "Mus musculus [25]": {"system": "Mus musculus", "test": "Anti-alzheimer activity against 8 month old 3xTg mouse model assessed as improved spatial preference towards annulus at 10 mg/kg, po administered 4 times per week for 4 weeks", "type": "functional, organism-based"}, "Mus musculus [26]": {"system": "Mus musculus", "test": "Anti-alzheimer activity against 5 month old APP/PS1 transgenic mouse model assessed as improved cognitive ability at 10 mg/kg, po administered 4 times per week for 4 weeks", "type": "functional, organism-based"}, "Mus musculus [27]": {"system": "Mus musculus", "test": "Anti-alzheimer activity against 8 month old 3xTg mouse model assessed as improved cognitive ability at 2 mg/kg, po administered 4 times per week for 4 weeks", "type": "functional, organism-based"}, "Mus musculus [28]": {"system": "Mus musculus", "test": "Downregulation of RIPK1 phosphorylation in 3xTg mouse hippocampus at 2 to 10 mg/kg, po by immunohistochemistry analysis", "type": "functional, organism-based", "conditions": "dose 2-10 mg/kg"}, "Mus musculus [29]": {"system": "Mus musculus", "test": "Downregulation of MAP4K4 phosphorylation in 3xTg mouse hippocampus at 2 to 10 mg/kg, po by immunohistochemistry analysis", "type": "functional, organism-based", "conditions": "dose 2-10 mg/kg"}, "Mus musculus [30]": {"system": "Mus musculus", "test": "Anti-necroptosis activity in 3xTg mouse hippocampus assessed as reduction in pMLKL activation at 2 to 10 mg/kg, po", "type": "functional, organism-based", "conditions": "dose 2-10 mg/kg"}, "Mus musculus [31]": {"system": "Mus musculus", "test": "Anti-alzheimer activity against 8 month old 3xTg mouse model assessed as reduction in p-Tau181 content at 2 to 10 mg/kg, po", "type": "functional, organism-based", "conditions": "dose 2-10 mg/kg"}, "Mus musculus [32]": {"system": "Mus musculus", "test": "Anti-alzheimer activity against 8 month old 3xTg mouse model assessed as reduction in Tau aggregation at 2 to 10 mg/kg, po", "type": "functional, organism-based", "conditions": "dose 2-10 mg/kg"}, "Mus musculus [33]": {"system": "Mus musculus", "test": "Anti-alzheimer activity in 8 month old 3xTg mouse model assessed as reversal of transcriptomic changes in Plxnd1 at 10 mg/kg, po", "type": "functional, organism-based"}, "Mus musculus [34]": {"system": "Mus musculus", "test": "Anti-alzheimer activity in 8 month old 3xTg mouse model assessed as reversal of transcriptomic changes in Lamc2 at 10 mg/kg, po", "type": "functional, organism-based"}},
  "note": "Calls of active or inactive are those of the source. No cut-off for these calls is given here.",
  "data": [
    {"smiles": "Cc1cc(F)cc(Nc2ncc(Nc3ccc(SC(F)(F)F)cc3)cc2C(N)=O)c1", "values": [
      {"measurement": "IC50", "setting": "[1]", "result": 0.62, "unit": "µM"},
      {"measurement": "inhibition", "setting": "[2]", "result": "Active"},
      {"measurement": "Activity", "setting": "BV-2 [3]", "result": "Active"},
      {"measurement": "Activity", "setting": "BV-2 [4]", "result": "Active"},
      {"measurement": "inhibition", "setting": "[5]", "result": "Dose-dependent-effect"},
      {"measurement": "inhibition", "setting": "[6]", "result": "Dose-dependent-effect"},
      {"measurement": "inhibition", "setting": "BV-2 [7]", "result": "Dose-dependent-effect"},
      {"measurement": "Activity", "setting": "[8]", "result": 100, "unit": "%"},
      {"measurement": "Activity", "setting": "Microglia [9]", "result": "inactive"},
      {"measurement": "Activity", "setting": "Microglia [10]", "result": "Active"},
      {"measurement": "Activity", "setting": "Microglia [11]", "result": "inactive"},
      {"measurement": "Activity", "setting": "Microglia [12]", "result": "inactive"},
      {"measurement": "Activity", "setting": "Microglia [13]", "result": "inactive"},
      {"measurement": "Activity", "setting": "Microglia [14]", "result": "inactive"},
      {"measurement": "IC50", "setting": "Cytochrome P450 2B6", "result": 5.2, "unit": "µM"},
      {"measurement": "IC50", "setting": "Cytochrome P450 2C8", "result": 6.8, "unit": "µM"},
      {"measurement": "IC50", "setting": "Cytochrome P450 2C19", "result": 8.3, "unit": "µM"},
      {"measurement": "IC50", "setting": "Cytochrome P450 2D6", "result": "> 10", "unit": "µM"},
      {"measurement": "IC50", "setting": "Cytochrome P450 3A4", "result": "> 10", "unit": "µM"},
      {"measurement": "IC50", "setting": "[15]", "result": "> 20", "unit": "µM"},
      {"measurement": "Fu", "setting": "[16]", "result": 0.1, "unit": "%"},
      {"measurement": "Fu", "setting": "[17]", "result": 0.8, "unit": "%"},
      {"measurement": "Tmax", "setting": "[18]", "result": 5.97, "unit": "h"},
      {"measurement": "half-life", "setting": "[19]", "result": 13.3, "unit": "h"},
      {"measurement": "AUC(0-t) at 24 h", "setting": "[20]", "result": 10900, "unit": "ng·h/mL"},
      {"measurement": "AUC(0-t) at 24 h", "setting": "[21]", "result": 2970, "unit": "ng·h/mL"},
      {"measurement": "Activity", "setting": "Mus musculus [22]", "result": "Active"},
      {"measurement": "Activity", "setting": "Mus musculus [23]", "result": "Active"},
      {"measurement": "Activity", "setting": "Mus musculus [24]", "result": "Active"},
      {"measurement": "Activity", "setting": "Mus musculus [25]", "result": "Active"},
      {"measurement": "Activity", "setting": "Mus musculus [26]", "result": "Active"},
      {"measurement": "Activity", "setting": "Mus musculus [27]", "result": "Active; Activity More Potent Than Nec-1"},
      {"measurement": "Activity", "setting": "Mus musculus [28]", "result": "Active; Activity More Potent Than Nec-1"},
      {"measurement": "Activity", "setting": "Mus musculus [29]", "result": "Active; Activity More Potent Than Nec-1"},
      {"measurement": "Activity", "setting": "Mus musculus [30]", "result": "Active"},
      {"measurement": "Activity", "setting": "Mus musculus [31]", "result": "Active"},
      {"measurement": "Activity", "setting": "Mus musculus [32]", "result": "Active"},
      {"measurement": "Activity", "setting": "Mus musculus [33]", "result": "Active"},
      {"measurement": "Activity", "setting": "Mus musculus [34]", "result": "Active"}
    ]}
  ]
}
